Measurements reported in paper PMC11794677, “Self‐Assembly of a Conjugate of Lipoic Acid With a Collagen‐Stimulating Pentapeptide Showing Cytocompatibility and Wound Healing Properties, and Chemical and Photolytic Disassembly” (Journal of Peptide Science, 2025).

Legend:
[1] = UV exposure / photodegradation, UV-vis absorbance at 333 nm; assay type: physicochemical; conditions: UV lamp 365 nm for 1 h, 0.1 wt% solution, read 24 h after irradiation
Method: To investigate the effect of UV exposure on lipoyl‐KTTKS the peptide powder was irradiated using a 4W UVGL‐25 lamp (Analytik Jena, Germany) at a wavelength of 365 nm for 1 h. The absorbance was tracked at 333 nm before, just after exposure and 24 h after exposure using a nanodrop spectrometer (Thermo‐Fisher Scientific). The full spectra were also collected using a Varian Cary Bio 300 UV‐vis (Cary).
Lipoic acid is susceptible to photolysis upon exposure to UV light. Photodegradation of lipoyl‐KTTKS was studied via UV‐vis, FTIR and CD spectroscopy and degradation products were analysed by electrospray ionisation‐mass spectroscopy (ESI‐MS). Photolysis was induced by exposure to UV for 1 h using a UV lamp with 365‐nm radiation. Lipoic acid presents a characteristic weak band at 333 nm that is related to the hindered dithiolane ring, that can be broken by UV irradiation. The absorbance of lipoyl‐KTTKS (0.1 wt% solution) before irradiation, just after and 24 h after irradiation to evaluate the recovery of the dithiolane ring is shown in Figure 5. […] The UV exposure disrupts the dithiolane ring, as reflected also in the FTIR spectrum (Figure S2), with the suppression of bands ν(S‐S) at 519 and 438 cm^−1 and ν(C‐S) at 721 cm^−1 [48, 49].

[2] = CAC assay with fluorescent probe thioflavin T (ThT); assay type: physicochemical; conditions: ThT fluorescence peak intensity (λem = 448 nm) vs concentration
Method: Before considering biocompatibility and bioactivity of lipoyl‐KTTKS, we examined whether this lipopeptide has a critical aggregation concentration (CAC) above which it forms self‐assembled aggregate structures. Based on our previous work on KTTKS‐lipopeptides, β‐sheet formation of lipoyl‐KTTKS is likely to be favoured. Therefore a CAC assay using the fluorescent probe thioflavin T (ThT) which is sensitive to β‐sheet formation was performed. The ThT fluorescence peak intensity was monitored as a function of concentration, and the results are shown in Figure 1 and indicate a CAC value (0.5 ± 0.1) wt% from the intersection of the straight lines at low and high concentrations, or (0.67 ± 0.06) wt% as the midpoint of a fitted Boltzmann‐type sigmoidal function: I=A2+A1−A2/1+expc−c1/2/σ
FIGURE 1 CAC assay plotting fluorescence intensity of ThT (λ em = 448 nm) as a function of concentration. […] The black lines provide a linear intercept estimate of CAC.
Here, I is the fluorescence intensity (at λ em = 448 nm), A 1 and A 2 are constants, c is the lipopeptide concentration, c 1/2 is the mid‐point concentration, and σ is the width parameter.

HDFa cells [3] = test: MTT cytocompatibility assay; assay type: cell-based, Human; conditions: 72 h incubation, concentrations up to 0.1 wt%, absorbance 560 nm, ANOVA, n = 3
Method: For the cytocompatibility assays, HDFa cells were cultivated in DMEM/F12 supplemented with 5% FBS, Glutamax, penicillin/streptomycin 100 IU/mL and incubated at 37°C within an atmosphere of 5% CO2. The RAW cells were cultured in DMEM with 10% FBS, Glutamax, penicillin/streptomycin 100 IU/mL and maintained under the same conditions as the HDFa cells.
To measure the cytocompatibility of lipoyl‐KTTKS, 24 h before the assay HDFa cells were cultivated in 96‐well plates with 1 × 10^4 cells/well with supplemented DMEM/F12. Then, the wells were washed three times with PBS, and cells were incubated for 72 h in media containing different concentrations of lipoyl‐KTTKS. After incubation, the cells were washed again three times with PBS and 100 μL of DMEM/F12 without phenol red + 5 μg/mL of MTT was added to each well. The plate containing cells in media containing MTT was incubated for 4 h inside an incubator at 37°C, protected from the light. After incubation, 100 μL of DMSO was added to each well to solubilize the resulting formazan crystals. The absorbance was measured at 560 nm using an Infinite F50 microplate reader (TECAN, Switzerland).

HDFa cells [4] = test: Scratch assay of in vitro wound healing; assay type: cell-based, Human; conditions: 0.0062 wt% in DMEM without serum
Method: For the scratch assay, 5 × 10^4 cells into were seeded into 24‐well plates, and cells were allowed to reach confluence. After reaching 90% confluence, a scratch was made in the middle of the well using a 200‐μL pipette tip and cells were incubated at 37°C in an atmosphere 5% CO2. The media used was DMEM without serum for the controls or DMEM without serum + lipoyl‐KTTKS at different concentrations. Pictures were taken periodically using a standard inverted optical microscope with phase contrast filters to monitor cell migration and wound closure.
As a simple in vitro ‘wound healing’ model, scratch assays were performed by creating a scratch in a layer of cells. Images of the confluent cell layer are presented in SI Figure S5. The scratch assay is a simple and affordable procedure consisting of simulating the closure of a skin wound by scratching a monolayer of fibroblasts seeded at high confluence and monitoring how long it takes for the cells to migrate and recover the ‘wound’ [51, 52, 53]. As evident from the images in Figure S5, the recovery of cells incubated with 0.0062 wt% lipoyl‐KTTKS was enhanced, with complete closure of the scratch after 48 h.

RAW 264.7 cells = test: Nitrite (inflammation) assay with Griess reagent; assay type: cell-based; conditions: 2 μg LPS, 24 h, different concentrations, absorbance 550 nm, ANOVA with Bonferroni correction
Method: To detect nitrite, the Griess reagent assay was used, following protocols described previously. Amounts 5 × 10^3 RAW 264.7 cells were seeded in a 96‐well plate and incubated for 24 h inside the cell incubator. After 24 h, the cells were washed three times with PBS and incubated in 100 μL of DMEM + 2 μg of LPS (lipopolysaccharide) for 24 h. After incubation in the presence of LPS, 100 μL of Griess reagent solution was added to each well and incubated for 10 min at room temperature. The resulting absorbance was measured at 550 nm using an Infinite F50 microplate reader (TECAN, Switzerland).
The Griess reagent assay was used as an indirect measure of the production of nitrite ions, an important species related to inflammation, by monitoring the presence of nitrites in media via colorimetric (UV‐vis absorbance) measurements. The assay was performed by incubating the cells in DMEM containing 2 μg of LPS with different concentrations of lipoyl‐KTTKS. Controls containing only LPS and RAW cells incubated in DMEM without LPS were also prepared.

[5] = tested on: procollagen type I carboxy-terminal peptide (PIP); conditions: cited from earlier work
Text: Here, we investigate the structural properties, biocompatibility and collagen‐stimulating activity of a novel peptide amphiphile comprising a conjugate of lipoic acid to pentapeptide KTTKS, termed lipoyl‐KTTKS (Scheme 1). […] This can be contrasted with previous reported data f ...

Recovery of absorbance at 333 nm (dithiolane ring) after UV exposure [1]: incomplete recovery
CAC (critical aggregation concentration) from intersection of straight lines ([2]; intersection of straight lines at low and high concentrations): 0.5 ± 0.1 wt%
CAC as midpoint of fitted Boltzmann-type sigmoidal function ([2]; midpoint c1/2 of sigmoidal fit): 0.67 ± 0.06 wt%
Substance: lipoyl‐KTTKS [peptide amphiphile comprising a conjugate of lipoic acid to pentapeptide KTTKS]
Cytotoxicity (cell viability, MTT) (HDFa cells [3]): does not present any statistically significant cytotoxicity
Time to first signs of recovery of the scratch (HDFa cells [4]): 12 h
Time to complete closure of the scratch (HDFa cells [4]; control closed only after 72 h): 48 h
Production of nitrites compared with cells incubated only in DMEM (without LPS) (RAW 264.7 cells; n = 3): statistically significant increase
Production of nitrites compared with cells incubated only in DMEM (without LPS) (RAW 264.7 cells; n = 3, listed as lipoyl‐KTKKS): increase
Increase in collagen synthesis compared with negative control ([5]; 0.038 wt% (0.5 mM) sample, enzyme immunoassay of PIP, single data point): 65%
Collagen synthesis relative to control and KTTKS [5]: superior to control and KTTKS itself
